# Experimental data as given in patent publication US4251628A, “Substrates for angiotensin converting enzyme” (priority 1978, dated 1981).
# Key:
# [1] = target: T1, angiotensin converting enzyme (ACE) (Homo sapiens, UniProt P12821); test: ACE assay: hydrolysis of ^3H-HipGlyGly by human serum, Lineweaver-Burke Km; type: biochemical
# T1 construct: Serum was prepared from fresh whole blood by standard techniques; from tissue; host or cells: serum (unfractionated)
# Method: The following sample illustrates the preferred assay method, the sensitivity of the assay and the Km for ^3 H-HipGlyGly. The reaction buffer contains 0.05 M Hepes, 0.1 M sodium chloride and 0.6 M sodium sulphate at pH 8.0. (Pepes is N-2-Hydroxyethyl piperazine N'-2-ethane sulfonic acid.) The substrate, ^3 H-HipGlyGly was dissolved in reaction buffer at a concentration of 16 mM and a specific radioactivity of about 0.15 millicuries/millimole. Serum was prepared from fresh whole blood by standard techniques. […] Hemolyzed samples were not used in the assay. Serum samples could be stored at least for one week at 2° C. to 8° C. or for at least 8 weeks frozen, prior to assaying. For the assay, 50 μl. of serum was diluted with 200 μl. of reaction buffer. All the reactions were carried out in glass tubes due to the potentially destructive action of ethyl acetate on plastic.
# The reaction mixture was composed of 50 μl. of diluted serum, an appropriate amount of substrate solution depending on the final substrate concentration desired, and reaction buffer sufficient to give a total reaction volume of 100 μl. All reaction tubes were incubated for 60 minutes at 37° C. Reactions were terminated by the addition of 1.0 ml. of 0.1 N hydrochloric acid. The reaction mixture was then extracted with 1.0 ml. ethyl acetate, by rotary agitation for 4-5 seconds. The phases were separted by centrifugation at 1000×G for ten minutes. A 0.5 ml. sample of the ethyl acetate (upper) layer was removed and tranferred to a scintillation vial containing 10 ml. scintillation fluid. (Riafluor, Trademark, New England Nuclear Corp., Boston, Mass.)
# A control determination of background radioactivity was made using 50 μl. of reaction buffer instead of diluted serum in the reaction mixture. The purpose of this control was to determine the number of total counts attributable to background radiation, non-specific release of hippuric acid and the presence of unreacted substrate in the ethyl acetate phase. Less than 7% of the ^3 H-HipGly Gly entered the organic phase. Total radioactivity was determined by counting an amount of substrate equal to that used in the reaction mixture directly in the scintillation counter.
# Reaction velocity, in terms of nanomoles of product formed per minute per ml of serum was calculated according to the following formula: [formula] In this formula, "nmoles" means nanomoles, "min" means minutes, "ml" means milliliters and "cpm" means radioactivity counts per minute. The factor of 2 is a correction for the aliquot size. In the case where a significant fraction of substrate has been hydrolyzed, and the substrate in one which is more soluble in the organic phase, as for example, ^125 I-HPPGlyGlyGly, a modified formula is used to take account of the decreasing amount of substrate as the reaction progresses: [formula]
# Reciprocal values of initial substrate concentration and reaction velocity were calculated and graphed according to the method of Lineweaver and Burke, as shown in FIG. 1. A straight line was obtained, which intercepted the ordinate at a value equal to the reciprocal of the maximum velocity of the enzyme reaction and intercepted the abcissa at a value equal to the negative reciprocal of the apparent Michaelis constant. […] It can be seen that reaction velocities as low as 12 nanomoles of substrate hydrolyzed per minute per ml. of serum can readily be measured.
# [2] = tested on: angiotensin converting enzyme (ACE); conditions: similar reaction conditions, enzyme from hog lung (Dorer et al.); cited from earlier work
# [3] = Extraction (partition) into ethyl acetate; type: physicochemical
# Description: (§1) Reaction conditions optimal for carrying out an ACE catalyzed hydrolysis of a substrate of the present invention are the same as have been previously described for substrates known in the prior art. Detailed studies of optimal conditions using HipGlyGly as substrate have been reported by Dorer, et al. The pH optimum is approximately 8.0 although greater than 50% maximal activity is obtained in the pH range 7.0-9.0, in the presence of 1 M NaCl. […] The relationship between the chloride requirement and the ionic strength requirement has not been fully characterized. […] Phosphate is inhibitory. Hepes, bicine and barbital buffers are suitable for use but Hepes is preferred because it provides maximum activity. Preferred conditions of buffer composition, ionic strength, pH and temperature are described in Example 1. […] The pH range for usable enzyme activity is from pH 6.5 to pH 8.7, with a broad plateau of maximal activity ranging from pH 7.2 to pH 8.5. Optimal substrate concentration depends upon the apparent Km, for the substrate compared with the Km's of possible competing substances in the sample. A substrate having a relatively low Km, such as ^3 H-benzoylProPheArg (Km 2×10^-4 M) could be suitably used at a concentration less than its Km. A substrate having a higher Km might better be used at a concentration greater than its Km. […] Because its Km is the lowest of any of the substrates of the present invention, ^3 H-benzoylProPheArg is the most preferred substrate for assays where ACE activity is low and maximum sensitivity is desired. In addition to being less sensitive to competitive inhibition, assays carried out with this substrate are potentially able to measure lower levels of ACE than the other substrates disclosed herein. Additionally, its partition behavior in an aprotic organic solvent is extremely favorable: only about 3% entered ethyl acetate in a preliminary extraction experiment. The remnant product Benzoylproline was about 90% extracted.
# The remnant reaction product may be extracted from the reaction mixture by an aprotic organic solvent which affords a reasonably quantitative separation of product from substrate. The use of solvents which may interfere with the counting process is to be avoided. Ethyl acetate is preferred. Approximately 91% of ^3 H-Hippuric acid is extracted into ethyl acetate. Extraction may be carried out by any suitable means familiar to those skilled in the art, such as shaking, agitating, mixing and the like. Separation of the phases is conveniently accomplished by centrifugation. Centrifugation at 1000×G for ten minutes is preferred, either at room temperature or in a refrigerated centrifuge. In some cases, an emulsion will form which can be separated by a longer centrifugation step.
# A control determination of background radioactivity was made using 50 μl. of reaction buffer instead of diluted serum in the reaction mixture. The purpose of this control was to determine the number of total counts attributable to background radiation, non-specific release of hippuric acid and the presence of unreacted substrate in the ethyl acetate phase. Less than 7% of the ^3 H-HipGly Gly entered the organic phase. Total radioactivity was determined by counting an amount of substrate equal to that used in the reaction mixture directly in the scintillation counter. […]
# serum carboxypeptidase = test: Sensitivity to serum carboxypeptidase; type: biochemical
# [4] = tested on: angiotensin converting enzyme (ACE); test: ACE-catalyzed hydrolysis: Km, pH, chloride and buffer dependence; type: biochemical; conditions: by substrate
# Description: as §1
# [5] = tested on: angiotensin converting enzyme (ACE); conditions: HipGlyGly as substrate, cited from earlier work
# [6] = target: T2, angiotensin converting enzyme (ACE) (Cavia porcellus, UniProt H0UWL7); test: Hydrolysis of ^125I-HPPGlyGlyGly by guinea pig serum ACE; type: biochemical
# T2 construct: native circulating soluble form, expected to be shed somatic ACE
# T2 sequence (H0UWL7 33-1234): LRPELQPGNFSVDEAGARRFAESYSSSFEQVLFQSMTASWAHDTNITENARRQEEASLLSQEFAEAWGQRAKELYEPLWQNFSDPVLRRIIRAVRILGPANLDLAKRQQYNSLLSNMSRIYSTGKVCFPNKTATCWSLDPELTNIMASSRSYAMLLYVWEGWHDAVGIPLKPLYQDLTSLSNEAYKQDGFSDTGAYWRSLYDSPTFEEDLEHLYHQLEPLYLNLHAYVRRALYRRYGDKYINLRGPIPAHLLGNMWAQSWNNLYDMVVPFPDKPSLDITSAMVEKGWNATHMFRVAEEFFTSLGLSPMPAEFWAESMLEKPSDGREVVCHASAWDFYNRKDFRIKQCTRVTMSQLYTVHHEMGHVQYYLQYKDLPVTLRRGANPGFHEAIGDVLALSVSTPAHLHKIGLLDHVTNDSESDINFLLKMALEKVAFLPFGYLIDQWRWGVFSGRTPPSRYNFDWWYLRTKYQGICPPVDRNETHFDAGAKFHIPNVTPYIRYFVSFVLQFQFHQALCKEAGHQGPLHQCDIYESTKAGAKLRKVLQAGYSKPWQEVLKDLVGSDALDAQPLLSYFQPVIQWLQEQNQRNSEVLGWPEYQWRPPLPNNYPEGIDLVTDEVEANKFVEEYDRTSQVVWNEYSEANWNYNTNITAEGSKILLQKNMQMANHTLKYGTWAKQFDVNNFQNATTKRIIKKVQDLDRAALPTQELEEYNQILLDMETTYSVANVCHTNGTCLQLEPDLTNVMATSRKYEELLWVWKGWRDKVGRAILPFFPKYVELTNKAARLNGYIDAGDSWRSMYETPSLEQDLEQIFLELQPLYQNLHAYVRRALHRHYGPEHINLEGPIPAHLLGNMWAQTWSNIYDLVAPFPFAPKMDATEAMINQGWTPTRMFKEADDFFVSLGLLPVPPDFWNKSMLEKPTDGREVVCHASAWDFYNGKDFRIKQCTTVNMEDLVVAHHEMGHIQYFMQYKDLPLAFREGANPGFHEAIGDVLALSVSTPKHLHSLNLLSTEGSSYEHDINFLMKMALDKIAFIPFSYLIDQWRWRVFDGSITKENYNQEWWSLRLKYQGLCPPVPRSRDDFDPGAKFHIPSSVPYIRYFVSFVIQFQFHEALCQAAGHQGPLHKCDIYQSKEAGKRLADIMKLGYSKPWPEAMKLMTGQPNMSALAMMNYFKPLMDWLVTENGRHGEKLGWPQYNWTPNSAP
# Method: The standard assay conditions as described in Example 1 were employed except that the source of ACE was guinea pig serum and the amount of substrate added was that amount needed to give 101,436 total counts per minute. In terms of mass, this amount is believed to be well below the Km for the substrate. Samples were incubated for 15 minutes, 30 minutes and 60 minutes, and an unreacted sample (0 time) was used to determine the amount of substrate extracted into ethyl acetate.
# T1 sequence (P12821 30-1232 limits assumed): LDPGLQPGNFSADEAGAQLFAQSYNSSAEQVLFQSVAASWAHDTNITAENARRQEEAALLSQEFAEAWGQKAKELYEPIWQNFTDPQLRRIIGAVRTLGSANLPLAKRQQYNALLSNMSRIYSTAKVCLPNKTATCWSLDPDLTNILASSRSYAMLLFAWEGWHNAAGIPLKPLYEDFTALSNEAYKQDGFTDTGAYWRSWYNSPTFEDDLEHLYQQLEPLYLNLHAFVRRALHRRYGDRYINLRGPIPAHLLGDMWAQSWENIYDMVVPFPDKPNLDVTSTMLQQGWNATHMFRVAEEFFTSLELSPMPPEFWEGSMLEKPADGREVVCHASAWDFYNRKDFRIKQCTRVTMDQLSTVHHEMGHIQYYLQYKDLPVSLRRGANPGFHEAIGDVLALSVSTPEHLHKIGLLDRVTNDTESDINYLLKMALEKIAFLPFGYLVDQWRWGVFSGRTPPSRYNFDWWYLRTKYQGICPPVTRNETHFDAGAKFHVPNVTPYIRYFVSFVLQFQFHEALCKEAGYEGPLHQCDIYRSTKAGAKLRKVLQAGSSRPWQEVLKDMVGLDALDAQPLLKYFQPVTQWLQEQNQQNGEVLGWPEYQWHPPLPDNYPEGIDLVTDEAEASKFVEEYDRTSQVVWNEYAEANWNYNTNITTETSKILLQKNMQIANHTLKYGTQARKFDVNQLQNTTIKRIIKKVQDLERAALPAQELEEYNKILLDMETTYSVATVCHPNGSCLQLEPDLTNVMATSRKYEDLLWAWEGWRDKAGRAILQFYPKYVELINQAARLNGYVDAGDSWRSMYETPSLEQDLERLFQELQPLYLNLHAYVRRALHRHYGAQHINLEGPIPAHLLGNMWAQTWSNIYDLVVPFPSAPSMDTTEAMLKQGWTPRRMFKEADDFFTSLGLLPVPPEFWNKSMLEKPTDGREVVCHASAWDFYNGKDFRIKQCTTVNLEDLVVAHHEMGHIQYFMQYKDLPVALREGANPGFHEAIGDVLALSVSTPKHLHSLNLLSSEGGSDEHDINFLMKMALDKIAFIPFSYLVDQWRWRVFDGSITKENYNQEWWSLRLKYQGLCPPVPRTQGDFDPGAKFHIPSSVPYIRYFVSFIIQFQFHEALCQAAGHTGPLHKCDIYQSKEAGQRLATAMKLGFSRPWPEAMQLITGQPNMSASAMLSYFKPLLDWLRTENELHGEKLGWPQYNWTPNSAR
smiles,measurement,setting,value
"[3H]c1ccc(C(=O)NCC(=O)NCC(=O)NCC(=O)O)cc1 [^3 H-HipGlyGly, ^3 H-hippurylglycylglycine]",Reciprocal of reaction velocity,[1]; [S] 1.82 mM,0.0504
same,Velocity,[1]; [S] 1.82 mM,19.83 nanomoles of product formed pe
same,Reciprocal of reaction velocity,[1]; [S] 3.64 mM,0.0289
same,Velocity,[1]; [S] 3.64 mM,34.65 nanomoles of product formed pe
same,Reciprocal of reaction velocity,[1]; [S] 5.45 mM,0.0214
same,Velocity,[1]; [S] 5.45 mM,46.76 nanomoles of product formed pe
same,Reciprocal of reaction velocity,[1]; [S] 7.27 mM,0.0191
same,Velocity,[1]; [S] 7.27 mM,52.48 nanomoles of product formed pe
same,Reciprocal of reaction velocity,[1]; [S] 9.09 mM,0.0183
same,Velocity,[1]; [S] 9.09 mM,54.63 nanomoles of product formed pe
same,Reciprocal of reaction velocity,[1]; [S] .91 mM,0.0810
same,Velocity,[1]; [S] .91 mM,12.35 nanomoles of product formed pe
same,Assay sensitivity (lowest measurable enzyme activity),[1]; assay condition of Example 1,8 units of enzyme per ml
same,Km,[2],2600 µM
same,Fraction extracted into ethyl acetate,[3],Less than 7%
same,Sensitivity to serum carboxypeptidase,serum carboxypeptidase,insensitive to serum carboxypeptidase
same,Chloride / ionic strength requirement of the ACE-catalyzed hydrolysis,[4],requires chloride ions
same,pH range with greater than 50% maximal activity,[5]; 1 M NaCl,7.0-9.0
same,pH optimum of ACE-catalyzed hydrolysis,[5]; Dorer et al.,approximately 8.0
"O=C(O)CNC(=O)CNC(=O)CNC(=O)CCc1ccc(O)c([125I])c1 [^125 I-HPPGlyGlyGly, ^125 I-p-hydroxyphenylpropionylglycylglycylglycine]",Net cpm in product,[6]; incubation 0 min,0 cpm
same,cpm in Ethyl Acetate phase,[6]; incubation 0 min,"27,205 cpm"
same,Net cpm in product,[6]; incubation 15 min,"17,808 cpm"
same,cpm in Ethyl Acetate phase,[6]; incubation 15 min,"40,000 cpm"
same,Net cpm in product,[6]; incubation 30 min,"43,804 cpm"
same,cpm in Ethyl Acetate phase,[6]; incubation 30 min,"59,182 cpm"
same,Net cpm in product,[6]; incubation 60 min,"58,044 cpm"
same,cpm in Ethyl Acetate phase,[6]; incubation 60 min,"69,577 cpm"
same,Fraction extracted into ethyl acetate,[3],27.2%
same,Sensitivity to serum carboxypeptidase,serum carboxypeptidase,insensitive to serum carboxypeptidase
same,Chloride / ionic strength requirement of the ACE-catalyzed hydrolysis,[4],requires chloride ions
